Drawing on US20250129087A1, “SALT CRYSTALS” (INTRA-CELLULAR THERAPIES, INC., priority 2022, published 2025), this text covers Appearance and pH for 31 molecules.

The structures appear in SMILES notation.

A short description of the first series: Aqueous solubility of the salt crystals (shaking in water for 24 hours, LC analysis). The class given is physicochemical. To be noted: appearance of the sample after shaking in water for 24 hours (Slurry or Clear). The method, then:
(§1) Samples are filtered and diluted (in a mixture of acetonitrile/water (1/1)) for LC analysis. Solubilities are calculated with the use of a calibration line. Furthermore, the pH values of the filtrated solutions are determined using pH indication paper.
Take `CN1C(=O)c2c(nn(Cc3ccc(-c4cccc(F)n4)cc3)c2Nc2ccccc2)N2C1=N[C@@H]1CCC[C@@H]12.Nc1ccc(C(=O)O)c(O)c1` [Aminosalicylate Salt 1]: the Appearance result is on record as “Slurry”.

A short description of the next series: pH of the filtrated solutions (pH indication paper). The format is physicochemical. To be noted: pH of the filtrated solution. The method, then:
as §1
On to `CN1C(=O)c2c(nn(Cc3ccc(-c4cccc(F)n4)cc3)c2Nc2ccccc2)N2C1=N[C@@H]1CCC[C@@H]12.CS(=O)(=O)O` [Mesylate Salt 1], for which the pH is 5.

Molecule `CN1C(=O)c2c(nn(Cc3ccc(-c4cccc(F)n4)cc3)c2Nc2ccccc2)N2C1=N[C@@H]1CCC[C@@H]12.O=C(O)c1ccncc1` [Isonicotinate Salt 1] had a pH of 5.

`CN1C(=O)c2c(nn(Cc3ccc(-c4cccc(F)n4)cc3)c2Nc2ccccc2)N2C1=N[C@@H]1CCC[C@@H]12.O=C(O)C(O)c1ccccc1` [Mandelate Salt 1]: the pH is given as 2.

The molecule `CN1C(=O)c2c(nn(Cc3ccc(-c4cccc(F)n4)cc3)c2Nc2ccccc2)N2C1=N[C@@H]1CCC[C@@H]12.O=S(=O)(O)CCS(=O)(=O)O` [Edisylate Salt 1] had a pH of 1.

The molecule `CN1C(=O)c2c(nn(Cc3ccc(-c4cccc(F)n4)cc3)c2Nc2ccccc2)N2C1=N[C@@H]1CCC[C@@H]12.O=C(O)CCCCC(=O)O` [Adipate Salt 1] gave a pH of 4.

Turning to `CCC(=O)O.CN1C(=O)c2c(nn(Cc3ccc(-c4cccc(F)n4)cc3)c2Nc2ccccc2)N2C1=N[C@@H]1CCC[C@@H]12` [Propionate Salt 1], the pH is 5.

`CN1C(=O)c2c(nn(Cc3ccc(-c4cccc(F)n4)cc3)c2Nc2ccccc2)N2C1=N[C@@H]1CCC[C@@H]12.O=C(O)c1ccccc1` [Benzoate Salt 1] gave a pH of 5.

`CN1C(=O)c2c(nn(Cc3ccc(-c4cccc(F)n4)cc3)c2Nc2ccccc2)N2C1=N[C@@H]1CCC[C@@H]12.Nc1ccc(C(=O)O)c(O)c1` [Aminosalicylate Salt 1] displayed a pH of 5.

Regarding `CN1C(=O)c2c(nn(Cc3ccc(-c4cccc(F)n4)cc3)c2Nc2ccccc2)N2C1=N[C@@H]1CCC[C@@H]12.O=C(O)C(F)(F)F` [Trifluoroacetate Salt 1], the pH is reported as 7.

In turn, `CN1C(=O)c2c(nn(Cc3ccc(-c4cccc(F)n4)cc3)c2Nc2ccccc2)N2C1=N[C@@H]1CCC[C@@H]12.O=S(=O)(O)c1ccccc1` [Besylate Salt 1] registered a pH of 1.

On to `CN1C(=O)c2c(nn(Cc3ccc(-c4cccc(F)n4)cc3)c2Nc2ccccc2)N2C1=N[C@@H]1CCC[C@@H]12.O=C(O)C(O)C(O)C(=O)O` [Tartrate Salt 1], for which the pH is listed as 4-5.

`CN1C(=O)c2c(nn(Cc3ccc(-c4cccc(F)n4)cc3)c2Nc2ccccc2)N2C1=N[C@@H]1CCC[C@@H]12.O=C(O)CCC(=O)O` [Succinate Salt 1] showed a pH of 4.

On to `CN1C(=O)c2c(nn(Cc3ccc(-c4cccc(F)n4)cc3)c2Nc2ccccc2)N2C1=N[C@@H]1CCC[C@@H]12.O=C(O)c1ccccc1O` [Salicylate Salt 2], for which the pH is given as 4-5.

For the molecule `CN1C(=O)c2c(nn(Cc3ccc(-c4cccc(F)n4)cc3)c2Nc2ccccc2)N2C1=N[C@@H]1CCC[C@@H]12.CN1C(=O)c2c(nn(Cc3ccc(-c4cccc(F)n4)cc3)c2Nc2ccccc2)N2C1=N[C@@H]1CCC[C@@H]12.O=C(O)CCCCC(=O)O` [Adipate Salt 2], the pH is on record as 4-5.

Molecule `CN1C(=O)c2c(nn(Cc3ccc(-c4cccc(F)n4)cc3)c2Nc2ccccc2)N2C1=N[C@@H]1CCC[C@@H]12.O=C(O)CCC(=O)C(=O)O` [Oxo-glutarate Salt 1] came in with a pH of 3.

In turn, `CCS(=O)(=O)O.CN1C(=O)c2c(nn(Cc3ccc(-c4cccc(F)n4)cc3)c2Nc2ccccc2)N2C1=N[C@@H]1CCC[C@@H]12` [Esylate Salt 1] gave a pH of 5.

Molecule `CN1C(=O)c2c(nn(Cc3ccc(-c4cccc(F)n4)cc3)c2Nc2ccccc2)N2C1=N[C@@H]1CCC[C@@H]12.O=S(=O)(O)c1cccc2c(S(=O)(=O)O)cccc12` [Napadisylate Salt 1] registered a pH of 1.

In turn, `CCCCCC(=O)O.CN1C(=O)c2c(nn(Cc3ccc(-c4cccc(F)n4)cc3)c2Nc2ccccc2)N2C1=N[C@@H]1CCC[C@@H]12` [Caproate Salt 1] displayed a pH of 5.

In the case of `CN1C(=O)c2c(nn(Cc3ccc(-c4cccc(F)n4)cc3)c2Nc2ccccc2)N2C1=N[C@@H]1CCC[C@@H]12.O=C(O)c1ccc2ccccc2c1O` [Xinafoate Salt 3], the pH is 7.

As to `CN1C(=O)c2c(nn(Cc3ccc(-c4cccc(F)n4)cc3)c2Nc2ccccc2)N2C1=N[C@@H]1CCC[C@@H]12.Cl` [HCl Salt 2], the pH is listed as 4-5.

`CN1C(=O)c2c(nn(Cc3ccc(-c4cccc(F)n4)cc3)c2Nc2ccccc2)N2C1=N[C@@H]1CCC[C@@H]12.O=C(O)C(=O)O` [Oxalate Salt 3] gave a pH of 1.

Take `CN1C(=O)c2c(nn(Cc3ccc(-c4cccc(F)n4)cc3)c2Nc2ccccc2)N2C1=N[C@@H]1CCC[C@@H]12.O=C(O)C(=O)O` [Oxalate Salt 2]: the pH amounted to 1.

On to `CN1C(=O)c2c(nn(Cc3ccc(-c4cccc(F)n4)cc3)c2Nc2ccccc2)N2C1=N[C@@H]1CCC[C@@H]12.O=S(=O)(O)O` [Sulfate Salt 1], for which the pH stood at 1.

In the case of `CCCCCCCCCCCC(=O)O.CN1C(=O)c2c(nn(Cc3ccc(-c4cccc(F)n4)cc3)c2Nc2ccccc2)N2C1=N[C@@H]1CCC[C@@H]12` [Laurate Salt 1], the pH turned out to be 5.

With `CN1C(=O)c2c(nn(Cc3ccc(-c4cccc(F)n4)cc3)c2Nc2ccccc2)N2C1=N[C@@H]1CCC[C@@H]12.O=C(O)c1cc(=O)[nH]c(=O)[nH]1.O=C(O)c1cc(=O)[nH]c(=O)[nH]1` [Orotate Salt 1], the pH stood at 5.

In turn, `CN1C(=O)c2c(nn(Cc3ccc(-c4cccc(F)n4)cc3)c2Nc2ccccc2)N2C1=N[C@@H]1CCC[C@@H]12.O=C(O)c1ccc2ccccc2c1O` [Xinafoate Salt 2] gave a pH of 7.

For the molecule `CN1C(=O)c2c(nn(Cc3ccc(-c4cccc(F)n4)cc3)c2Nc2ccccc2)N2C1=N[C@@H]1CCC[C@@H]12.O=C(O)c1ccccc1O` [Salicylate Salt 1], the pH turned out to be 5.

As to `CN1C(=O)c2c(nn(Cc3ccc(-c4cccc(F)n4)cc3)c2Nc2ccccc2)N2C1=N[C@@H]1CCC[C@@H]12.O=C(O)C[C@H](O)C(=O)O` [Malate Salt 1], the pH worked out at 4.

Molecule `CN1C(=O)c2c(nn(Cc3ccc(-c4cccc(F)n4)cc3)c2Nc2ccccc2)N2C1=N[C@@H]1CCC[C@@H]12.O=C(O)[C@@H](O)[C@H](O)[C@H](O)[C@@H](O)C(=O)O` [Galactarate Salt 1] came in with a pH of 5.

The series is the same for the next values; noted with them: pH of the filtrated solution, listed as 4-acetamido-benzoate Salt 1.
As to `CC(=O)Nc1ccc(C(=O)O)cc1.CN1C(=O)c2c(nn(Cc3ccc(-c4cccc(F)n4)cc3)c2Nc2ccccc2)N2C1=N[C@@H]1CCC[C@@H]12` [Acetamido Benzoate Salt 1], the pH is given as 5.

The series is the same for the next values; noted with them: pH of the filtrated solution, listed as 4-acetamido-benzoate Salt 2.
As for `CC(=O)Nc1ccc(C(=O)O)cc1.CN1C(=O)c2c(nn(Cc3ccc(-c4cccc(F)n4)cc3)c2Nc2ccccc2)N2C1=N[C@@H]1CCC[C@@H]12` [Acetamido Benzoate Salt 2], the pH worked out at 4.
